How the values were obtained:
[1] = test system: Bel-7402 (human hepatocellular carcinoma); experiment: MTT cytotoxicity assay, Bel-7402; assay type: cell-based; conditions: maximal tested concentration 20.0 μM
Procedure: (§1) The cytotoxicity of ligustrazine-triterpenes derivatives was evaluated on five tumor cell lines (Bel-7402, HepG2, HT-29, Hela, and MCF-7) using the standard MTT assay. In the study, the antineoplastic drug cisplatin (DDP) was selected as the positive control. The MDCK cell line was used to test the toxicity of the ligustrazine-triterpenes derivatives and DDP.
(§2) The cell lines Bel-7402 (human hepatocellular carcinoma), HepG2 (human hepatocellular carcinoma), HT-29 (human colon carcinoma), Hela (human cervical cancer), MCF-7 (human breast cancer) were included in this study. All these cell lines were provided by the Chinese Academy of Medical Sciences & Peking Union Medical College. Cultures were maintained as monolayers in RPMI 1640 supplemented with 10% (v/v) heat inactivated fetal bovine serum and 1% (v/v) enicillin/streptomycin (Thermo Technologies, New York, NY, USA) at 37 °C in a humidified atmosphere with 5% CO2. The ligustrazine derivatives under study were dissolved in DMSO (Sigma, St. Louis, MO, USA) and added at required concentrations to the cell culture. Cells incubated without the preparations served as the control.
(§3) The cytotoxicity of the compounds was evaluated on five cancer cell lines (Bel-7402, HepG2, HT-29, Hela, MCF-7) by the standard MTT assay. In short, exponentially growing cells were seeded into 96-well plates at a density 10^4 cells/mL. The plates were incubated at 37 °C in a humidified 5% CO2 atmosphere. Cells were allowed to adhere to the surface for 24 h and then treated with serial dilutions of the compounds for 72 h. Later, aliquots of [3-(4,5-dimethylthiazol-2-yl)-2,5-diphenyltetrazolium bromide] (MTT) solution (20 μL, 5 mg/mL) were added to each well and the incubation was continued for an additional 4 h. Then the supernatant medium was thrown away. The dark blue formazan crystals formed within the healthy cells were solubilized with DMSO (150 μL) and the absorbance was measured in a plate reader (BIORAD 550 spectrophotometer, Bio-rad Life Science Development Ltd., Beijing, China) at 490 nm. Wells containing no drugs were used as control group. The IC50 values were defined as the concentration of compounds that produced a 50% reduction of surviving cells and calculated using Logit-method. Tumor cell growth inhibitory rate was calculated in the following Equation (1): % inhibition = (1 − Sample group OD/Control group OD) × 100% (1)

[2] = test system: HT-29 (human colon carcinoma); experiment: MTT cytotoxicity assay, HT-29; assay type: cell-based; conditions: maximal tested concentration 20.0 μM
Procedure: as §1, §2, §3

[3] = test system: HepG2 (human hepatocellular carcinoma); experiment: MTT cytotoxicity assay, HepG2; assay type: cell-based; conditions: 72 h, maximal tested concentration 20.0 μM
Procedure: as §1, §2, §3

[4] = test system: MCF-7 (human breast cancer); experiment: MTT cytotoxicity assay, MCF-7; assay type: cell-based; conditions: maximal tested concentration 20.0 μM
Procedure: as §1, §2, §3

[5] = test system: Hela (human cervical cancer); experiment: MTT cytotoxicity assay, Hela; assay type: cell-based; conditions: 72 h, maximal tested concentration 20.0 μM
Procedure: as §1, §2, §3

[6] = test system: Madin-Darby canine kidney cell line (MDCK); experiment: MTT cytotoxicity (nephrotoxicity/selectivity) assay, MDCK; assay type: cell-based; conditions: maximal tested concentration 20.0 μM, toxicity to MDCK kidney cells

melting point [°C]	Structure (SMILES)	IC50 ([1]; Homo sapiens, Bel-7402, 72 h) [µM]	IC50 ([2]; Homo sapiens, HT-29, 72 h) [µM]	IC50 ([3]; Homo sapiens, HepG2, 72 h) [µM]	IC50 ([4]; Homo sapiens, MCF7, 72 h) [µM]	IC50 ([5]; Homo sapiens, HeLa) [µM]	IC50 ([6]; Canis lupus familiaris) [µM]	IC50 ([1]; 72 h) [µM]	IC50 ([2]; 72 h) [µM]	IC50 [3] [µM]	IC50 ([4]; 72 h) [µM]	IC50 [5] [µM]	IC50 [6] [µM]
194.2 to 194.9	Cc1nc(C)c(C(=O)OC2CCC3(C)C(CCC4(C)C3CC=C3C5CC(C)(C)CCC5(C(=O)OCc5ccccc5)CCC34C)C2(C)C)nc1C (stereo not drawn) [Compound 1c, 3β-Hydroxyolea-(3,5,6-trimethylpyrazin-2-carbonyl)-12-en-28-oic acid-benzyl ester]	> 20	> 20	> 20	> 20	> 20	–	–	–	–	–	–	–
–	N.N.[Cl][Pt][Cl] [DDP, cisplatin, reference compound]	–	–	–	–	–	–	5.91	5.28	4.57	5.17	6.22	14.6
–	C[C@H]1[C@H](C)CC[C@]2(C(=O)O)CC[C@]3(C)C(=CC[C@@H]4[C@@]5(C)CC[C@H](O)C(C)(C)[C@@H]5CC[C@]43C)[C@H]12 [UA, ursolic acid, reference compound]	> 20	> 20	> 20	> 20	> 20	–	–	–	–	–	–	–
125.9 to 126.7	Cc1nc(C)c(COC(=O)[C@]23CC[C@@H](C)[C@H](C)C2C2=CCC4[C@@]5(C)CC[C@H](O)C(C)(C)C5CC[C@@]4(C)[C@]2(C)CC3)nc1C (stereo partly drawn) [Compound 2a, 3β-Hydroxyurs-12-en-28-oic acid-3,5,6-trimethylpyrazin-2-methyl ester]	8.01	17.6	> 20	> 20	20	> 20	–	–	–	–	–	–
–	Cc1nc(C)c(COC(=O)[C@]23CCC(C)(C)CC2C2=CCC4[C@@]5(C)CC[C@H](O)C(C)(C)C5CC[C@@]4(C)[C@]2(C)CC3)nc1C (stereo partly drawn) [Compound 1a, 3β-Hydroxyolea-12-en-28-oic acid-3,5,6-trimethylpyrazin-2-methyl ester]	10.2	13.2	14.8	15.2	14.1	> 20	–	–	–	–	–	–
–	CC1(C)CC[C@]2(C(=O)O)CC[C@]3(C)C(=CC[C@@H]4[C@@]5(C)CC[C@H](O)C(C)(C)[C@@H]5CC[C@]43C)[C@@H]2C1 [OA, oleanolic acid, reference compound]	> 20	> 20	> 20	> 20	> 20	–	–	–	–	–	–	–
168.2 to 168.9	Cc1nc(C)c(COC(=O)[C@]23CC[C@@H](C)[C@H](C)C2C2=CCC4[C@@]5(C)CC[C@H](OC(=O)c6nc(C)c(C)nc6C)C(C)(C)C5CC[C@@]4(C)[C@]2(C)CC3)nc1C (stereo partly drawn) [Compound 2b, 3β-Hydroxyurs-(3,5,6-trimethylpyrazin-2-carbonyl)-12-en-28-oic acid-3,5,6-trimethylpyrazin-2-methyl ester]	> 20	> 20	> 20	> 20	> 20	–	–	–	–	–	–	–
289.7 to 290.5	Cc1nc(C)c(C(=O)OC2CCC3(C)C(CCC4(C)C3CC=C3C5CC(C)(C)CCC5(C(=O)O)CCC34C)C2(C)C)nc1C (stereo not drawn) [Compound 1d, 3β-Hydroxyolea-(3,5,6-trimethylpyrazin-2-carbonyl)-12-en-28-oic acid]	9.28	8.43	7.94	5.69	4.37	16.4	–	–	–	–	–	–
–	Cc1nc(C)c(COC(=O)[C@@]2(C)CC[C@]3(C)CC[C@]4(C)C(=CC(=O)C5[C@@]6(C)CC[C@H](O)C(C)(C)C6CC[C@]54C)C3C2)nc1C (stereo partly shown) [Compound 3a, 3-Hydroxy-11-oxoolean-12-en-30-oic acid-3,5,6-trimethylpyrazin-2-methyl ester]	> 20	19.9	> 20	> 20	11.2	> 20	–	–	–	–	–	–
193 to 193.7	Cc1nc(C)c(COC(=O)[C@]23CCC(C)(C)CC2C2=CCC4[C@@]5(C)CC[C@H](OC(=O)c6nc(C)c(C)nc6C)C(C)(C)C5CC[C@@]4(C)[C@]2(C)CC3)nc1C (stereo partly drawn) [Compound 1b, 3β-Hydroxyolea-(3,5,6-trimethylpyrazin-2-carbonyl)-12-en-28-oic acid-3,5,6-trimethylpyrazin-2-methyl ester]	> 20	> 20	12.1	10.6	> 20	> 20	–	–	–	–	–	–
305.9 to 306.6	Cc1nc(C)c(C(=O)OC2CCC3(C)C(CCC4(C)C3CC=C3C5C(C)C(C)CCC5(C(=O)O)CCC34C)C2(C)C)nc1C (stereo not drawn) [Compound 2d, 3β-Hydroxyurs-(3,5,6-trimethylpyrazin-2-carbonyl)-12-en-28-oic acid]	10.1	9.7	> 20	9.49	9.66	> 20	–	–	–	–	–	–
–	C=C(C)[C@@H]1CC[C@]2(C(=O)O)CC[C@]3(C)[C@H](CC[C@@H]4[C@@]5(C)CC[C@H](O)C(C)(C)[C@@H]5CC[C@]43C)[C@@H]12 [BA, betulinic acid, reference compound]	> 20	> 20	> 20	> 20	> 20	–	–	–	–	–	–	–
–	CC1(C)[C@@H](O)CC[C@]2(C)[C@H]3C(=O)C=C4[C@@H]5C[C@@](C)(C(=O)O)CC[C@]5(C)CC[C@@]4(C)[C@]3(C)CC[C@@H]12 [GA, glycyrrhetic acid, reference compound]	–	–	–	–	–	–	> 20	> 20	> 20	> 20	> 20	–
–	Cc1nc(C)c(C)nc1C [TMP, ligustrazine]	> 20	> 20	> 20	> 20	> 20	–	–	–	–	–	–	–
218.5 to 219.3	Cc1nc(C)c(C(=O)OC2CCC3(C)C(CCC4(C)C3CC=C3C5C(C)C(C)CCC5(C(=O)OCc5ccccc5)CCC34C)C2(C)C)nc1C (stereo not drawn) [Compound 2c, 3β-Hydroxyurs-(3,5,6-trimethylpyrazin-2-carbonyl)-12-en-28-oic acid-benzyl ester]	> 20	> 20	> 20	> 20	> 20	–	–	–	–	–	–	–

Structure (SMILES)	melting point [°C]	IC50 ([1]; Homo sapiens, Bel-7402, 72 h) [µM]	IC50 ([2]; Homo sapiens, HT-29, 72 h) [µM]	IC50 ([3]; Homo sapiens, HepG2, 72 h) [µM]	IC50 ([4]; Homo sapiens, MCF7, 72 h) [µM]	IC50 ([5]; Homo sapiens, HeLa) [µM]	IC50 ([6]; Canis lupus familiaris) [µM]	IC50 ([1]; 72 h) [µM]	IC50 ([2]; 72 h) [µM]	IC50 [3] [µM]	IC50 ([4]; 72 h) [µM]	IC50 [5] [µM]	IC50 [6] [µM]
C=C(C)C1CCC2(C(=O)O)CCC3(C)C(CCC4C5(C)CCC(OC(=O)c6nc(C)c(C)nc6C)C(C)(C)C5CCC43C)C12 (stereo not drawn) [Compound 4d, 3β-Hydroxy-(3,5,6-trimethylpyrazin-2-carbonyl)-lup-20(29)-ene-28-oic acid]	279.5 to 280.3	13.3	8.38	7.42	6.22	12.2	> 20	–	–	–	–	–	–
C=C(C)[C@@H]1CC[C@]2(C(=O)OCc3nc(C)c(C)nc3C)CC[C@]3(C)C(CCC4[C@@]5(C)CC[C@H](OC(=O)c6nc(C)c(C)nc6C)C(C)(C)C5CC[C@]43C)C12 (stereo partly drawn) [Compound 4b, 3β-Hydroxy-(3,5,6-trimethylpyrazin-2-carbonyl)-lup-20(29)-ene-28-oic acid-3,5,6-trimethylpyrazin-2-methyl ester]	142.1 to 142.9	> 20	> 20	13.2	12.9	> 20	> 20	–	–	–	–	–	–
C=C(C)C1CCC2(C(=O)OCc3ccccc3)CCC3(C)C(CCC4C5(C)CCC(OC(=O)c6nc(C)c(C)nc6C)C(C)(C)C5CCC43C)C12 (stereo not drawn) [Compound 4c, 3β-Hydroxy-(3,5,6-trimethylpyrazin-2-carbonyl)-lup-20(29)-ene-28-oic acid-benzyl ester]	162.1 to 162.8	> 20	> 20	> 20	> 20	> 20	–	–	–	–	–	–	–
